# Reference: ChEMBL document CHEMBL1148514, “Development of lipopeptides for inhibiting 20S proteasomes” (Bioorg Med Chem Lett, 2006)
# Residues, ends and D or L forms follow the SMILES beside them.
# Columns and labels:
# [1] = target: T1, Proteasome component C5 (Saccharomyces cerevisiae S288c) (UniProt P23724); experiment: Activation of post acid activity of yeast 20S proteasome
# T1 sequence (whole entry): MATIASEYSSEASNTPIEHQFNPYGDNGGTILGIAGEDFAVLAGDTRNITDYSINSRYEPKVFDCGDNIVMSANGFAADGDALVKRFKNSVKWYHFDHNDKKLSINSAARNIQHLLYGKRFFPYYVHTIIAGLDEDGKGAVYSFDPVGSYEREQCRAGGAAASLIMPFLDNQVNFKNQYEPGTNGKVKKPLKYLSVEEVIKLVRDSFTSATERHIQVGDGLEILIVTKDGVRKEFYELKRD
# [2] = target: T2, Proteasome Macropain subunit (Saccharomyces cerevisiae S288c) (UniProt P22141); experiment: Activation of trypsin like activity of yeast 20S proteasome
# T2 sequence (whole entry): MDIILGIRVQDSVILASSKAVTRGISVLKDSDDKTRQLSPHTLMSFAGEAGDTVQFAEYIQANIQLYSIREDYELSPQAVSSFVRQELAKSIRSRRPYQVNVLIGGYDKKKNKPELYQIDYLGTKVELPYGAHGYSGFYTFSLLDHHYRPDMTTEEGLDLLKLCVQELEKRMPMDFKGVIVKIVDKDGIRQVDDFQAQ
# [3] = target: T3, Proteasome Macropain subunit PRE2 (Saccharomyces cerevisiae S288c, UniProt P30656); experiment: Inhibition of chymotrypsin like activity of yeast 20S proteasome
# T3 sequence (P30656 whole entry): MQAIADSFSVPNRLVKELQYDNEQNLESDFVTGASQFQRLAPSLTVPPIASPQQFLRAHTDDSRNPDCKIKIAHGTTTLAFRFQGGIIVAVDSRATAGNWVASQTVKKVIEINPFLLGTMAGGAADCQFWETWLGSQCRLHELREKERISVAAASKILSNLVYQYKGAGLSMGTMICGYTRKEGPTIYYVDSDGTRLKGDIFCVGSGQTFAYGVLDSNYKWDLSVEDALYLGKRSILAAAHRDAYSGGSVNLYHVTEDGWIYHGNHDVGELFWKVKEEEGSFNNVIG
# [4] = target: T1, Proteasome component C5 (Saccharomyces cerevisiae S288c); experiment: Inhibition of post acid activity of yeast 20S proteasome at 80 uM
# [5] = target: T4, Proteasome Macropain subunit (Saccharomyces cerevisiae S288c, UniProt P22141); experiment: Inhibition of trypsin like activity of yeast 20S proteasome
# T4 sequence (P22141 whole entry): T2 sequence (whole entry)
# [6] = target: T5, Proteasome Macropain subunit PRE2 (Saccharomyces cerevisiae S288c) (UniProt P30656); experiment: Inhibition of chymotrypsin like activity of yeast 20S proteasome at 80 uM
# T5 sequence (whole entry): T3 sequence (P30656 whole entry)
# [7] = target: T5, Proteasome Macropain subunit PRE2 (Saccharomyces cerevisiae S288c); experiment: Activation of chymotrypsin like activity of yeast 20S proteasome
# [8] = target: T2, Proteasome Macropain subunit (Saccharomyces cerevisiae S288c); experiment: Inhibition of trypsin like activity of yeast 20S proteasome at 625 uM
# Proteasome component C5 [9] = target: T6, Proteasome component C5 (Saccharomyces cerevisiae S288c, UniProt P23724); experiment: Inhibition of post acid activity of yeast 20S proteasome
# T6 sequence (P23724 whole entry): T1 sequence (whole entry)
# [10] = target: T5, Proteasome Macropain subunit PRE2 (Saccharomyces cerevisiae S288c); experiment: Inhibition of chymotrypsin like activity of yeast 20S proteasome at 625 uM
# [11] = target: T1, Proteasome component C5 (Saccharomyces cerevisiae S288c); experiment: (§1) Inhibition of post acid activity of yeast 20S proteasome at 625 uM
# Proteasome component C5 [12] = target: T6, Proteasome component C5; experiment: as §1
Compound,Activity [1],Activity [2],inhibition [8],inhibition [10],inhibition [11],Ki [3],other results
CCCCCCCC(=O)N[C@H](C(=O)N[C@H](C(=O)N[C@H](C(=O)N[C@@H](Cc1ccc(O)cc1)C(=O)N[C@@H](CCCCN)C(=O)N[C@@H](Cc1ccccc1)C(=O)O)[C@@H](C)O)C(C)C)[C@@H](C)O (HELM PEPTIDE1{[CCCCCCCC(=O)[*:2]].T.V.T.Y.K.F}$$$$V2.0),1.3,1.2,,,,20 µM,
CCCCCCCCCCCCCCCC(=O)N[C@H](C(=O)N[C@H](C(=O)N[C@H](C(=O)N[C@@H](Cc1ccc(O)cc1)C(=O)N[C@@H](CCCCN)C(=O)N[C@@H](Cc1ccccc1)C(=O)O)[C@@H](C)O)C(C)C)[C@@H](C)O (HELM PEPTIDE1{[CCCCCCCCCCCCCCCC(=O)[*:2]].T.V.T.Y.K.F}$$$$V2.0),,,,,,,Activity [7]: 1.6
H-TITYDF-OH,,,< 10%,< 10%,,,Ki (Proteasome component C5 [9]): > 625 µM
H-TITYKF-OH,,,< 10%,,,151 µM,Ki (Proteasome component C5 [12]): 260 µM
H-TVTYDY-OH,,,< 10%,< 10%,< 10%,,
H-TVTYKL-OH,,,< 10%,,< 10%,545 µM,

# Second part, led by results:
Activity [1],Activity [2],inhibition [8],inhibition [10],inhibition [11],Compound,Ki [3],other results
,1.9,,,,CCCCCCCC(=O)N[C@@H](Cc1ccc(O)cc1)C(=O)N[C@@H](CCC(=O)O)C(=O)N[C@@H](CC(C)C)C(=O)O (HELM PEPTIDE1{[CCCCCCCC(=O)[*:2]].Y.E.L}$$$$V2.0),> 80 µM,inhibition [4]: < 10%
1.3,,,,,CCCCCCCCCCCCCC(=O)N[C@H](C(=O)N[C@H](C(=O)N[C@H](C(=O)N[C@@H](Cc1ccccc1)C(=O)N[C@@H](CC(=O)O)C(=O)N[C@@H](Cc1ccc(O)cc1)C(=O)O)[C@@H](C)O)[C@@H](C)CC)[C@@H](C)O (HELM PEPTIDE1{[CCCCCCCCCCCCCC(=O)[*:2]].T.I.T.F.D.Y}$$$$V2.0),,Ki [5]: 78 µM; inhibition [6]: < 10%
1.3,1.6,,,,CCCCCCCCCCCCCCCCCC(=O)N[C@H](C(=O)N[C@H](C(=O)N[C@H](C(=O)N[C@@H](Cc1ccccc1)C(=O)N[C@@H](CC(=O)O)C(=O)N[C@@H](Cc1ccc(O)cc1)C(=O)O)[C@@H](C)O)[C@@H](C)CC)[C@@H](C)O (HELM PEPTIDE1{[CCCCCCCCCCCCCCCCCC(=O)[*:2]].T.I.T.F.D.Y}$$$$V2.0),39 µM,
,,< 10%,< 10%,< 10%,H-TITYEY-OH,,
